Read-outs that look alike come from different tables or passages of the source.
What was measured:
[1] = biological target: T1, CDK12 (Homo sapiens (Human), UniProt Q9NYV4); experiment: Biochemical assay for CDK12 (Kd determination), kinase-tagged phage/qPCR competition binding
Description: Kinase-tagged T7 phage strains were grown in parallel in 24-well blocks in an E. coli host derived from the BL21 strain. E. coli were grown to log-phase and infected with T7 phage from a frozen stock (multiplicity of infection=0.4) and incubated with shaking at 32° C. until lysis (90-150 minutes). The lysates were centrifuged (6,000×g) and filtered (0.2 μm) to remove cell debris. The remaining kinases were produced in HEK-293 cells and subsequently tagged with DNA for qPCR detection. […] The liganded beads were blocked with excess biotin and washed with blocking buffer (SeaBlock (Pierce), 1% BSA, 0.05% Tween 20, 1 mM DTT) to remove unbound ligand and to reduce non-specific phage binding. […] Test compounds were prepared as 40× stocks in 100% DMSO and directly diluted into the assay. All reactions were performed in polypropylene 384-well plates in a final volume of 0.02 ml. […] The kinase concentration in the eluates was measured by qPCR.
Target sequence in this assay (Q9NYV4 whole entry, species assumed): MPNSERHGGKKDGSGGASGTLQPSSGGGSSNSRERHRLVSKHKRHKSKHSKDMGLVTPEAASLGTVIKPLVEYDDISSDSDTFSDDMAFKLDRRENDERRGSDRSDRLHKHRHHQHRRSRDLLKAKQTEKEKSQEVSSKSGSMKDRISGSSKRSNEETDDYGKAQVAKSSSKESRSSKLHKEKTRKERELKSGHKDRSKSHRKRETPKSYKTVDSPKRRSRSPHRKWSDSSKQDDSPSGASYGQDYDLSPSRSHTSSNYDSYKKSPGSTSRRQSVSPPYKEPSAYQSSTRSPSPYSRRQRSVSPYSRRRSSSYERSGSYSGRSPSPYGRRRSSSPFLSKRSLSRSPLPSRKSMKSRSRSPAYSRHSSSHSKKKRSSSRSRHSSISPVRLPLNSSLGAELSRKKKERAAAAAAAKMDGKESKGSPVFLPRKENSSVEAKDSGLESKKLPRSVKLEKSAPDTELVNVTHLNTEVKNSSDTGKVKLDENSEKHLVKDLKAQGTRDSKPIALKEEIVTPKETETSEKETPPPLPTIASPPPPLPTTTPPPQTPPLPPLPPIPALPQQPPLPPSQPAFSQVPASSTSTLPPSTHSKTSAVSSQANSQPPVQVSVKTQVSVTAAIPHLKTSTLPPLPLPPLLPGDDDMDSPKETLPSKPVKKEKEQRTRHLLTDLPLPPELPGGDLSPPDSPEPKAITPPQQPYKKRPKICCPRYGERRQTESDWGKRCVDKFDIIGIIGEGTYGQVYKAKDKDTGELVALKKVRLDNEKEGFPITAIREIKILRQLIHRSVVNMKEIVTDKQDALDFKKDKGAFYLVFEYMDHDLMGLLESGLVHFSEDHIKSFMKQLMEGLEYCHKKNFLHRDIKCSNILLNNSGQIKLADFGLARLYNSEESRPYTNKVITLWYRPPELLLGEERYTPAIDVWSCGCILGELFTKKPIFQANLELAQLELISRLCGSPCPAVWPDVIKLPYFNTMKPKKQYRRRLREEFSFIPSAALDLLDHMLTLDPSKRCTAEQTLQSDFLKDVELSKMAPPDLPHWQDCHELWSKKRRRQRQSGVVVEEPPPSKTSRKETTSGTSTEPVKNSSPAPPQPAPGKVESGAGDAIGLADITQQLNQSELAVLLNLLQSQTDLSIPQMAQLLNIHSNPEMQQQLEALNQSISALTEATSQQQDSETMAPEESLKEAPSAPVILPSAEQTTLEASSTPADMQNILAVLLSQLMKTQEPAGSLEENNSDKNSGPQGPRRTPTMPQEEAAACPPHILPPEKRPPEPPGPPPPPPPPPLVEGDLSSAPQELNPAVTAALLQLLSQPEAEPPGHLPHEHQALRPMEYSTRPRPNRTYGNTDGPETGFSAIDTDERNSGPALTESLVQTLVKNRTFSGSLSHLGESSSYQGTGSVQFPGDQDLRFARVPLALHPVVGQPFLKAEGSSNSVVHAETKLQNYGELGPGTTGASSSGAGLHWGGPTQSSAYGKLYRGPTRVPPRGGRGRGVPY

[2] = biological target: CDK7 (Homo sapiens (Human), UniProt P50613); experiment: Biochemical assay for CDK7, LANCE TR-FRET; settings: read-out: CDK 7 IC50
Description: The inhibitory activity of the test compounds was assessed by the LANCE TR-FRET assay, which detects the ATP-dependent phosphorylation of an ULight-myelin basic protein (MBP) substrate peptide (100 nM) by CDK7 (10 nM). Briefly, the enzyme reaction was run in reaction buffer (20 mM HEPES (pH 7.5), 10 mM MgCl2, 0.01% Triton x, 100 μM Sodium Orthovanadate, 1 mM DTT). The assay was performed in 384-well plate. The end concentration of the ATP substrate was 1 mM/100 μM, and that of the ULight-MBP substrate peptide was 100 nM, and of CDK7 was 10 nM. Pre-incubation of the compound and enzyme was performed for 60 min at room temperature. After 60 min incubation at room temperature, the reaction was terminated by the addition of 40 mM EDTA and 1 nM Eu-labeled anti-phospho-MBP-binding protein antibody in the buffer. […] The readout was calculated as (acceptor counts/donor counts)×1000. The IC50 values were derived by fitting a sigmoidal dose-response curve to a plot of assay readout over inhibitor concentration.

[3] = biological target: CDK13 (Homo sapiens (Human), UniProt Q14004); experiment: Biochemical assay for CDK13, LanthaScreen Eu Kinase Binding Assay; settings: for IC50: kinase tracer 236 100 nM; for Ratio CDK7/CDK13: ratio of IC50
Excerpt: Binding of an inhibitor to the kinase competes for binding with the tracer, resulting in a loss of FRET signal.

[4] = biological target: T1, CDK12; experiment: CDK12 plate based target engagement assay in Jurkat cells; type: cell-based
Description: Jurkat cells were treated with varying concentrations of the compound for 6 hours. The DMSO concentration was maintained at 0.1%. Cells were harvested and lysed. 200 μg of the lysate was incubated with 1 μM Bio-THZ531 in the presence of 1 mM DTT and incubated on a rocker at 4° C. overnight. 100 μL of this sample was added to pre-washed streptavidin coated plates and incubated at room temperature on a rocker for 2 hours. The plates were washed and incubated with CDK12 antibody for overnight at 4° C. Next day the plate was washed and incubated for 2 hours with HRP labelled anti rabbit secondary antibody. Bio-THZ531 bound CDK12 was determined using TMB substrate. […] Percentage CDK12 occupancy with the test compound was calculated over untreated control. Occupancy 50 was calculated by fitting the dose response data to sigmoidal curve fitting equation using GraphPad Prism software V5.
Target sequence in this assay (Q9NYV4 whole entry, looked up): as the sequence (Q9NYV4 whole entry, species assumed) above
Target sequence in this assay (O75909 whole entry partner, looked up): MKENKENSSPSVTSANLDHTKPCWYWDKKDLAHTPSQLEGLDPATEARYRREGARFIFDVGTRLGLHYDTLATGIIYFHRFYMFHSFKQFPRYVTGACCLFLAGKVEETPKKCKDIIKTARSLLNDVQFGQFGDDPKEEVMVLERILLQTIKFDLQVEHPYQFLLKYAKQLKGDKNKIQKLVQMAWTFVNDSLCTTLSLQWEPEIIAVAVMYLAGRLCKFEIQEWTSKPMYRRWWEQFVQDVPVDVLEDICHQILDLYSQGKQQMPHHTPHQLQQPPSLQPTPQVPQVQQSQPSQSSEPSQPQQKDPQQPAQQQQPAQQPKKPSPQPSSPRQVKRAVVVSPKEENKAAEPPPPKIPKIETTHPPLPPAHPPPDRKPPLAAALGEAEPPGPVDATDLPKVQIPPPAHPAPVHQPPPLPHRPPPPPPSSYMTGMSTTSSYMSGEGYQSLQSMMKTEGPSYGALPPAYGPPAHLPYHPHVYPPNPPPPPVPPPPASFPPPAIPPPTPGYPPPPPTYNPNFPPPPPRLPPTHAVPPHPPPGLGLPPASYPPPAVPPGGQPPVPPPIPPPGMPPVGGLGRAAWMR

[5] = biological target: T1, CDK12; experiment: Biochemical assay for CDK12 (IC50 determination), LANCE TR-FRET; settings: for IC50: ATP 100 μM, 60 min pre-incubation
Description: The inhibitory activity of the test compounds was assessed by the LANCE TR-FRET assay, which detects the ATP-dependent phosphorylation of an ULight-4E-BP1 (Thr37/Thr46) substrate peptide (100 nM) by CDK12 (30 nM). Briefly, the enzyme reaction was run in reaction buffer (25 mM HEPES (pH 7.5), 10 mM MgCl2, 0.01% BSA, 0.01% Triton x, 1 mM DTT). The assay was performed in 384-well plate format. The end concentration of the ATP substrate was 100 μM, and that of the ULight-4E-BP1 (Thr37/Thr46) substrate peptide was 100 nM, and of CDK12 was 30 nM. Pre-incubation of the compound and enzyme was performed for 60 min at room temperature. After 60 min incubation at room temperature, the reaction was terminated by the addition of 40 mM EDTA and 0.5 nM Eu-labeled anti-phospho-eIF4E-binding protein (Thr37/46) antibody in LANCE detection buffer. […] The readout was calculated as (acceptor counts/donor counts)×1000. The IC50 values were derived by fitting a sigmoidal dose-response curve to a plot of assay readout over inhibitor concentration.
Target sequence in this assay (Q9NYV4 whole entry, looked up, species assumed): as the sequence (Q9NYV4 whole entry, species assumed) above
Target sequence in this assay (O75909 whole entry partner, looked up, species assumed): as the sequence (O75909 whole entry partner, looked up) above

[6] = ATP 1 mM/100 μM, 60 min pre-incubation

Sequence of CDK13 (Q14004 whole entry, looked up, species assumed): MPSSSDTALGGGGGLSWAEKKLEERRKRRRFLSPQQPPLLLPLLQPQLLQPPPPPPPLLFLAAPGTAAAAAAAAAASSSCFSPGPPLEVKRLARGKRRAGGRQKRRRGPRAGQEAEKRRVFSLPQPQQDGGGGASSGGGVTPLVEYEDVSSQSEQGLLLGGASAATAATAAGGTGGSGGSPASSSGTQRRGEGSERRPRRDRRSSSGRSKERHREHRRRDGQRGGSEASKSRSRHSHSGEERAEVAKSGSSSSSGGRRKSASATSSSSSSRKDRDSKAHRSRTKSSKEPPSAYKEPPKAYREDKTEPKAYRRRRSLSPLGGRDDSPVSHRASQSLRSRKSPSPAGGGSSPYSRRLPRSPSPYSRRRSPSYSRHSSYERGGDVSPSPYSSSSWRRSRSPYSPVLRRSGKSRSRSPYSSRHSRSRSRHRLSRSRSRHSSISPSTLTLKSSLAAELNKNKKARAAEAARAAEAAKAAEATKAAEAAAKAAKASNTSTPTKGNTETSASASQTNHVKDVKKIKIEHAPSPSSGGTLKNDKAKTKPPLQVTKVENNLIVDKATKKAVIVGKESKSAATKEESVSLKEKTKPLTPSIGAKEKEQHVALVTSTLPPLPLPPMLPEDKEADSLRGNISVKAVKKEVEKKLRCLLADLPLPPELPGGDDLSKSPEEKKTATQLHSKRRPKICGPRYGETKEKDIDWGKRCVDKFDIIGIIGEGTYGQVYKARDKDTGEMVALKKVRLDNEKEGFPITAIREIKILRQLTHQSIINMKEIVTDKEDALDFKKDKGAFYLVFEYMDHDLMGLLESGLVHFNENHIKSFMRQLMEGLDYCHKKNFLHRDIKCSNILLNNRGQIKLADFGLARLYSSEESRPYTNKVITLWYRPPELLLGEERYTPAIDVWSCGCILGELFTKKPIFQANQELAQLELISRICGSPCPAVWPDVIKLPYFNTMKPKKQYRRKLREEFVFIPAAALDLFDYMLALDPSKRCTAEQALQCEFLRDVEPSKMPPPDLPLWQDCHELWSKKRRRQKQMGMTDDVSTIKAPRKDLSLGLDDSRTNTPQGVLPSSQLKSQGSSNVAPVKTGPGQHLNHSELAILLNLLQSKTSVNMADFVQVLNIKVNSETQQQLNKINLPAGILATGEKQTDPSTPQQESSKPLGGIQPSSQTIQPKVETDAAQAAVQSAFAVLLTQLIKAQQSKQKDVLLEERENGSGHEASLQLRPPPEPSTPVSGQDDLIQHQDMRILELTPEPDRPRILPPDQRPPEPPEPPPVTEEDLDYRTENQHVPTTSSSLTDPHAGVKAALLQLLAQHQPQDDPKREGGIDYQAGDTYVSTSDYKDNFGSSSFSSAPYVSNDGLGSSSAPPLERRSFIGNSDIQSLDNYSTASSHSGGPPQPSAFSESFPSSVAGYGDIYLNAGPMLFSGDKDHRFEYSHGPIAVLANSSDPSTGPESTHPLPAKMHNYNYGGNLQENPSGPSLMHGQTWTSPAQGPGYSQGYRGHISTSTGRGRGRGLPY
Sequence of CDK13 (O75909 whole entry partner, looked up, species assumed): as the sequence (O75909 whole entry partner, looked up) above
Sequence of CDK7 (P50613 whole entry, looked up, species assumed): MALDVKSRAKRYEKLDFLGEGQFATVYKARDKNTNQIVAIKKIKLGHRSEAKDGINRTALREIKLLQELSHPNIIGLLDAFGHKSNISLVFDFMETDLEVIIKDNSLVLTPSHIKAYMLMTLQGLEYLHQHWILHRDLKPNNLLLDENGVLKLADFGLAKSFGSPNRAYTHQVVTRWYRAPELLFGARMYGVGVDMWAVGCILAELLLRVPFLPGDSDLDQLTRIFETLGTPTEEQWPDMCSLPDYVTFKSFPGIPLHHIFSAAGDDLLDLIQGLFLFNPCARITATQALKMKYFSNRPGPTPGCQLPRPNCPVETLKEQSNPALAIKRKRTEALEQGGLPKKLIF
Sequence of CDK7 (P51946 whole entry partner, looked up, species assumed): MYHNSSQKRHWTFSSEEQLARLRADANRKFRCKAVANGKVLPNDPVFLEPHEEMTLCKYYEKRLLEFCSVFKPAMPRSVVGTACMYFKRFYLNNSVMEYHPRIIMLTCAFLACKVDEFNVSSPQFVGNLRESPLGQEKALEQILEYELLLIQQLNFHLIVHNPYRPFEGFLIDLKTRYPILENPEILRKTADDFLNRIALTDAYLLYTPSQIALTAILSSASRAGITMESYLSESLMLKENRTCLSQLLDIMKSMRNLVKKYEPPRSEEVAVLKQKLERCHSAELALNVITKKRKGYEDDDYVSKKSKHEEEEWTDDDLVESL
Sequence of CDK7 (P51948 whole entry partner, looked up, species assumed): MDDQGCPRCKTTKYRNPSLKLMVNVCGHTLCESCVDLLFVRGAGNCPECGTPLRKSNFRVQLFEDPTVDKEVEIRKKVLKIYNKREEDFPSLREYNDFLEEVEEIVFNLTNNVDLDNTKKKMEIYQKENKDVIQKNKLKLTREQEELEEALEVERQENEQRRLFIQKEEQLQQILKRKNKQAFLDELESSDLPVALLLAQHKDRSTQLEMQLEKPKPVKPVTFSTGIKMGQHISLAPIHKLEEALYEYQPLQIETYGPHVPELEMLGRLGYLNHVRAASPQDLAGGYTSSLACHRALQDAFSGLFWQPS

Row | SMILES | Kd [1] [nM] | IC50 [2, 6] [nM] | IC50 [3] [nM] | Ratio CDK7/CDK13 [3] | CDK12 Target Occupancy (Tocc50) μM in Jurkat cells ([4]; Jurkat cells, 6 hours) [µM] | Ratio CDK7/CDK12 [5] | IC50 [5] [nM] | CDK12 Target Occupancy (Tocc50) μM in Jurkat cells [4] [µM] | IC50 [2] [nM]
1 | C=CC(=O)N1CC=C(c2ccc(C(C(=O)Nc3cc(C4CC4)[nH]n3)C(C)C)cn2)CC1 (stereo not shown) [Compound 7, 2-(1′-acryloyl-1′,2′,3′,6′-tetrahydro-[2,4′-bipyridin]-5-yl)-N-(5-cyclopropyl-1H-pyrazol-3-yl)-3-methylbutanamide] | > 100 | 744 | 398 | 1.86 |  |  |  |  | 
2 | C=CC(=O)N1CC=C(c2ccc(CC(=O)Nc3cc(C4CC4)[nH]n3)cn2)C1 [Compound 53, 2-(6-(1-acryloyl-2,5-dihydro-1H-pyrrol-3-yl)pyridin-3-yl)-N-(5-cyclopropyl-1H-pyrazol-3-yl)acetamide] |  | 7790 | 0.9 | 8655.55 | 0.014 | 779 | 10 |  | 
3 | C#CC(=O)N1CCC=C(c2ccc(CC(=O)Nc3cc(C4CC4)[nH]n3)cn2)C1 [Compound 58, N-(5-cyclopropyl-1H-pyrazol-3-yl)-2-(1′-propioloyl-1′,2′,5′,6′-tetrahydro-[2,3′-bipyridin]-5-yl)acetamide] |  |  | 84 |  | 0.0097 |  | 49 |  | 
4 | C=CC(=O)N1CC=C(c2ccc(C(C)C(=O)Nc3cc(C4CC4)[nH]n3)cn2)C1 (stereo not shown) [Compound 46, 2-(6-(1-acryloyl-2,5-dihydro-1H-pyrrol-3-yl)pyridin-3-yl)-N-(5-cyclopropyl-1H-pyrazol-3-yl)propanamide] |  |  | 6.9 |  | 0.003 |  | 32 |  | 
5 | C=CC(=O)N1CC=C(c2ccc(C(C)C(=O)Nc3cc(C4CC4)[nH]n3)cn2)CC1 (stereo not shown) [Compound 4, 2-(1′-acryloyl-1′,2′,3′,6′-tetrahydro-[2,4′-bipyridin]-5-yl)-N-(5-cyclopropyl-1H-pyrazol-3-yl)propanamide] | < 25 | 1710 | 3 | 570.0 |  | 23.75 | 72 |  | 
6 | C#CC(=O)N1CC=C(c2ccc(CC(=O)Nc3cc(C4CC4)[nH]n3)cn2)C1 [Compound 60, N-(5-cyclopropyl-1H-pyrazol-3-yl)-2-(6-(1-propioloyl-2,5-dihydro-1H-pyrrol-3-yl)pyridin-3-yl)acetamide] |  |  |  |  | 0.0088 |  | 12 |  | 
7 | C#CC(=O)N1CC=C(c2ccc(C(C)C(=O)Nc3cc(C4CC4)[nH]n3)cn2)CC1 (stereo not shown) [Compound 50, N-(5-cyclopropyl-1H-pyrazol-3-yl)-2-(1′-propioloyl-1′,2′,3′,6′-tetrahydro-[2,4′-bipyridin]-5-yl)propanamide] |  |  | 7 | 1.71 |  |  |  | 0.038 | 12
8 | C=CC(=O)NC1CCC(c2ccc(C(C)C(=O)Nc3cc(C4CC4)n[nH]3)cc2)CC1 (single isomer, unassigned) [Compound 11, N-(4-(4-(1-((5-cyclopropyl-1H-pyrazol-3-yl)amino)-1-oxopropan-2-yl)phenyl)cyclohexyl)acrylamide] | 25 to 100 | 3650 | 45 |  |  |  | 1020 |  | 
9 | C=CC(=O)N1CC=C(c2ccc(C(C(=O)Nc3cc(C4CC4)[nH]n3)C(C)C)cc2)CC1 (stereo not shown) [Compound 3, 2-(4-(1-acryloyl-1,2,3,6-tetrahydropyridin-4-yl)phenyl)-N-(5-cyclopropyl-1H-pyrazol-3-yl)-3-methylbutanamide] | > 100 | 506 | 101 | 5.0 |  |  |  |  | 
10 | C=CC(=O)N1CCC=C(c2ccc(C(C)C(=O)Nc3cc(C4CC4)[nH]n3)cn2)C1 (stereo not shown) [Compound 35, 2-(1′-acryloyl-1′,2′,5′,6′-tetrahydro-[2,3′-bipyridin]-5-yl)-N-(5-cyclopropyl-1H-pyrazol-3-yl)propanamide] | < 25 | 153 | 6 | 25.5 |  | 5.1 | 30 |  | 
11 | C=CC(=O)N1CCC=C(c2ccc(C(C)C(=O)Nc3cc(C4CC4)[nH]n3)cc2)CC1 (stereo not shown) [Compound 9, 2-(4-(1-acryloyl-2,3,6,7-tetrahydro-1H-azepin-4-yl)phenyl)-N-(5-cyclopropyl-1H-pyrazol-3-yl)propanamide] | 25 to 100 | 6580 | 21 | 313.57 |  | 27.43 | 240 |  | 
12 | C=CC(=O)N1CCN(c2ccc(C(C)C(=O)Nc3cc(C4CC4)[nH]n3)cc2)CC1 (single isomer, unassigned) [Compound 18, 2-(4-(4-acryloylpiperazin-1-yl)phenyl)-N-(5-cyclopropyl-1H-pyrazol-3-yl)propanamide] | 25 to 100 | 2320 | 11.7 |  |  |  | 238 |  | 
13 | C=CC(=O)N1CCN(c2ccc(C(C)C(=O)Nc3cc(C4CC4)[nH]n3)cn2)CC1 (stereo not shown) [Compound 20, 2-(6-(4-acryloylpiperazin-1-yl)pyridin-3-yl)-N-(5-cyclopropyl-1H-pyrazol-3-yl)propanamide] | < 25 | 2090 | 94 | 22.23 |  | 21.11 | 99 |  | 
14 | C=CC(=O)NC1CCC(c2ccc(C(C)C(=O)Nc3cc(C4CC4)n[nH]3)cc2)CC1 (single isomer, unassigned) [Compound 10, N-(4-(4-(1-((5-cyclopropyl-1H-pyrazol-3-yl)amino)-1-oxopropan-2-yl)phenyl)cyclohexyl)acrylamide] | < 25 | 5490 | 18 |  |  |  | 740 |  | 
15 | N#CN1CCC=C(c2ccc(CC(=O)Nc3cc(C4CC4)[nH]n3)cn2)C1 [Compound 61, 2-(1′-cyano-1′,2′,5′,6′-tetrahydro-[2,3′-bipyridin]-5-yl)-N-(5-cyclopropyl-1H-pyrazol-3-yl)acetamide] |  |  |  |  | 0.007 |  | 6 |  | 
16 | C=CC(=O)N1CC=C(c2ccc(C(C)C(=O)Nc3cc(C4CC4)[nH]n3)cn2)CC1 (single isomer, unassigned) [Compound 5, 2-(1′-acryloyl-1′,2′,3′,6′-tetrahydro-[2,4′-bipyridin]-5-yl)-N-(5-cyclopropyl-1H-pyrazol-3-yl)propanamide] | 25 to 100 | > 10000 | 77 | 129.87 |  | 7.64 | 1310 |  | 
17 | CC#CC(=O)N1CCC=C(c2ccc(C(C)C(=O)Nc3cc(C4CC4)[nH]n3)cn2)C1 (stereo not shown) [Compound 52, 2-(1′-(but-2-ynoyl)-1′,2′,5′,6′-tetrahydro-[2,3′-bipyridin]-5-yl)-N-(5-cyclopropyl-1H-pyrazol-3-yl)propanamide] |  | 2190 | 19 | 115.26 | 0.179 | 9.64 | 227 |  | 

From patent publication US10894786B2, “Substituted pyrazole derivatives as selective CDK12/13 inhibitors” (Aurigene Discovery Technologies Limited, priority 2018, dated 2021)
